The test system of data set [1] is whole cells of Pichia pastoris. Put plainly: Conversion of alcohols by whole cells of Pichia pastoris in aqueous reaction media. Type of data set: cell-based. The note with it: for Oxidation by methanol-induced alcohol oxidase from P. pastoris: aqueous reaction media. On the procedure: Pichia pastoris was obtained from the American Type Culture Collection, Rockville, Maryland, U.S.A. (ATCC 28485). The growth and maintenance medium consisted of: KH2 PO4 2.6 g/L; K2 HPO4 0.3 g/L; (NH4)2 SO4 1.5 g/L; MgSO4.7 ·H2 O 0.3 g/L; Difco yeast extract 1.9 g/L; FeSO4 ·7H2 O 1 mg/L; CuSO4 ·5H2 O 5 μg/L; H3 BO3 10 μg/L; MnSO4 ·H2 O 10 μg/L; ZnSO4 ·7H2 O 70 μg/L: NaMoO4 ·2H2 O 10 μg/L. After the medium was autoclaved and cooled, methanol (10 g/L) and a vitamin solution (J.P. van der Walt and A.E. van Kerken, Antonie van Leeuwenkoek 27: 81-90, 1961) (2 mL) were added. Growth of the organism was carried out in Erlenmeyer shake flasks at 30° C. on a reciprocal shaker (200 rpm). After 72 hrs growth, biomass was harvested by centrifugation (4000 g, 5 min) washed with 0.1 M phosphate buffer pH 8, and resuspended in 0.5 M Tris buffer (pH 8).
Unless otherwise stated, the reaction conditions for whole cell systems in aqueous solution (0.5M Tris pH 8) were as follows: 25 ml of the biomass suspension was dispensed into 125 mL serum vials and the substrate was added to the concentration listed in Table 1. The final biomass concentration was 5 g/L. The vials were flushed with oxygen, capped and sealed to prevent loss of reactants or products from the system. The vials were pressurized with oxygen (15 psig) and shaken (200 rpm) at 30° C. during the reaction. A sample was withdrawn following the reaction time listed in Table 1 and centrifuged (15000 g, 1 min) to remove biomass and stop the reaction. The supernatant liquid was diluted 1:1 with internal standard for gas chromatography. In some cases, a portion of the sample was extracted with 9 volumes of warm (50° C.) water, to solubilize insoluble separated product, mixed thoroughly by vortexing, and then diluted 1:1 with internal standard before assaying by gas chromatography. In all experiments the vials were regularly repressurized with oxygen throughout the reaction period.
The substrates and products were assayed using a Hewlett-Packard 5790A gas chromatograph equipped with a Chromasorb 101 packed column. The carrier gas was helium and the column was run isothermally at 220° C. For aqueous reaction systems the internal standard was isopropyl alcohol (20 g/L). In non-aqueous systems octanol (20 g/L) was dissolved in the appropriate solvent and used as internal standard.

The test system of data set [2] is alkane-induced alcohol oxidase. The note with it: Kemp et al; cited from earlier work.
Data set [3] addresses T1, purified alcohol oxidase from P. pastoris (Komagataella phaffii, UniProt P04842).
T1 sequence (P04842 2-663 limits assumed): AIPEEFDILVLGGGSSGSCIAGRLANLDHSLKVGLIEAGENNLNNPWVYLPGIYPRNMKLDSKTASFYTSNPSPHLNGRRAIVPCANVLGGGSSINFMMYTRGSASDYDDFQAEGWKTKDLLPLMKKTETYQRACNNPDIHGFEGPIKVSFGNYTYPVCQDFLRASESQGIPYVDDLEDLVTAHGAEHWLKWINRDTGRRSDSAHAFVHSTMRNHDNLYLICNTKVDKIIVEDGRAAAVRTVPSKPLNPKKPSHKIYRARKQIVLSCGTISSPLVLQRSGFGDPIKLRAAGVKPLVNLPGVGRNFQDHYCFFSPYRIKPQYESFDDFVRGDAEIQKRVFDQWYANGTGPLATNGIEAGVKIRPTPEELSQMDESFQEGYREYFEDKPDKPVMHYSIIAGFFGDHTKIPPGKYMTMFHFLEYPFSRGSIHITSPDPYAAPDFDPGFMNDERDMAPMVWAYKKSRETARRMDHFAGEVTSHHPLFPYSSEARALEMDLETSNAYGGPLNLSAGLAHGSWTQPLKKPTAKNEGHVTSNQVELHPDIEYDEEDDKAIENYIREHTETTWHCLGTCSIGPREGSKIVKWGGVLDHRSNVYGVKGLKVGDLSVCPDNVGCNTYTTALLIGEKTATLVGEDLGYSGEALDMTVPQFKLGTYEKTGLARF
Conditions: Patel et al; cited from earlier work.

The next data set deals with T2, alcohol oxidase (Komagataella phaffii, UniProt P04842).
T2 construct: purchased Provesta Corp. (Bartlesville, Oklahoma)
T2 sequence (P04842 2-663 limits assumed): T1 sequence (P04842 2-663 limits assumed)
As to the kind of experiment: Conversion of benzyl alcohol to benzaldehyde by purified alcohol oxidase in aqueous two phase systems. Type of data set: biochemical, Pichia pastoris. Conditions: for Reaction Rate: benzyl alcohol 20 g/L. As for the experimental part: To determine reaction rates, benzyl alcohol was presolubilized in the solvent of interest to a final concentration of 20 g/L unless otherwise specified. Alcohol oxidase and catalase were premixed in an activity ratio of 1300 U catalase activity per unit of alcohol oxidase activity. In some cases the enzyme mixture was diluted with 0.1 M phosphate buffer (pH 8) to determine the effect of changes in phase volume ratio. The enzyme mixture was then added to the solvent-substrate reaction fluid in a 125 mL serum vial. Reaction conditions were otherwise identical to those described above.
The purified alcohol oxidase was obtained from Provesta Corp. (Bartlesville, Oklahoma) and consisted of a concentrated (35 g/L) protein solution with a specific activity of 14.7 International Enzyme Units (IEU) per milligram of protein. One IEU is defined as the amount of enzyme which will oxidize one micomole of ethanol to acetaldehyde per minute at pH 7.5 at 25° C. The enzyme was stored frozen (-20° C.) until used. Beef liver catalase was obtained from Boehringer Mannheim Inc. as a 20 g/L suspension with a specific activity of 65000 U/mg. It was stored at 4° C.
Benzyl alcohol to benzaldehyde conversion was described in part a) except the percent aqueous phase was varied between 1and 5%.

A further data set relates to P. pastoris. Put plainly: Bio-oxidation of hexanol to hexanal by P. pastoris in two-phase aqueous (5% v/v)/organic systems. Type of data set: cell-based, Pichia pastoris. The note with it: for Hexanal produced: aqueous phase 5% v/v, 24 h incubation.
In data set [4] the test system is whole cells of Pichia pastoris. Put plainly: Conversion of higher alcohols by whole cells of Pichia pastoris in two-phase (hexane/water) reaction system. Type of data set: cell-based. The note with it: alcohol 30 g/L. As for the experimental part: Growth of the organism was carried out in Erlenmeyer shake flasks at 30° C. on a reciprocal shaker (200 rpm). After 72 hrs growth, biomass was harvested by centrifugation (4000 g, 5 min) washed with 0.1 M phosphate buffer pH 8, and resuspended in 0.5 M Tris buffer (pH 8).
The method of conversion of higher alcohols using whole cells in a two-phase reaction system was as follows. One gram of Pichia pastoris cell paste (pellet resulting from a 10 minute, 9154 g centrifugation) was placed in a 125 ml serum vial and dispersed in 2 ml of H2 O (aqueous phase).
Then 48 ml of hexane containing the substrate (concentration in Table 1) were added to form the organic phase. The reaction was conducted as described above. Samples from the organic phase were withdrawn at the indicated times (Table 1) and the concentration of aldehyde product determined by gas chromatography.
The carrier gas was helium and the column was run isothermally at 220° C. For aqueous reaction systems the internal standard was isopropyl alcohol (20 g/L). In non-aqueous systems octanol (20 g/L) was dissolved in the appropriate solvent and used as internal standard.

The format of data set [5] is physicochemical. As for the experimental part:
The partitioning of benzyl alcohol and benzaldehyde between 0.1 M phosphate buffer and each solvent used were measured as follows: benzyl alcohol (10 g/L) and benzaldehyde (10 g/L) were dissolved in each of the solvents of interest. Ten millilitres of each solvent were then dispensed into a test tube containing 10 ml of 0.1 M phosphate buffer (pH 8). The tubes were capped, vortexed, and the mixture was allowed to equilibrate for 1 hr at 30° C. Both phases were then assayed for benzaldehyde and benzyl alcohol as described above. Partition coefficients were expressed as the ratio of the concentration of the solute of interest in the aqueous phase: the concentration of the same compound in the organic phase.
The partition coefficients were determined as in Example 2 but expressed as solute (g/L) in organic phase/solute (g/L) in aqueous phase (see Table 4).

The term inhibition denotes the share of the control response that was lost under treatment.

With `CCCCCCCO` [heptanol], in data set [1], the “Oxidation by methanol-induced alcohol oxidase from P. pastoris” value (“Oxidation … from P. pastoris” for short) is given as “unable to oxidize”.

As for `CCCCCCCCCCCCO` [dodecanol], the “Substrate specificity of alkane-induced alcohol oxidase” value in data set [2] is given as “optimum activity”.

As for `CC(N)CO` (centres unmarked) [2-amino-1-propanol], in data set [3], the “Oxidation by purified alcohol oxidase” value was “unable to oxidize”.

For the compound `NCCO` [2-amino-ethanol], the “Oxidation by purified alcohol oxidase” value in data set [3] is “unable to oxidize”.

Turning to `CCCCCCCCCO` [nonanol], the “Oxidation … from P. pastoris” value in data set [1] is “unable to oxidize”.

Take `OCc1ccccc1` [benzyl alcohol]: the “Cumulative benzaldehyde production Concn.” value worked out at 2.1 g/L on alcohol oxidase (enzyme 1.0 U/mL, time 2.0 h); 2.8 g/L on alcohol oxidase (enzyme 1.0 U/mL, time 4.0 h); 17 g/L on alcohol oxidase (enzyme 1.0 U/mL, time 8.0 h); 5.1 g/L on alcohol oxidase (enzyme 2.5 U/mL, time 2.0 h); 6.3 g/L at alcohol oxidase (enzyme 2.5 U/mL, time 4.0 h); 9.9 g/L on alcohol oxidase (enzyme 5.0 U/mL, time 2.0 h). Moreover, the “Cumulative benzaldehyde production Concn.” value on alcohol oxidase (enzyme 5.0 U/mL, time 4.0 h) turned out to be 13 g/L; at alcohol oxidase (enzyme 7.5 U/mL, time 2.0 h), 13 g/L; at alcohol oxidase (enzyme 7.5 U/mL, time 4.0 h), 19 g/L; at alcohol oxidase (enzyme 10 U/mL, time 2.0 h), 15 g/L; at alcohol oxidase (enzyme 10 U/mL, time 4.0 h, fed-batch addition of benzyl alcohol), 22 g/L; at alcohol oxidase (enzyme 15 U/mL, time 2.0 h), 17 g/L. Besides, the “Cumulative benzaldehyde production Concn.” value turned out to be 32 g/L at alcohol oxidase (enzyme 15 U/mL, time 4.0 h, fed-batch addition of benzyl alcohol) and 45 g/L on alcohol oxidase (enzyme 15 U/mL, time 8.0 h, fed-batch addition of benzyl alcohol). Besides, the “Initial rate of benzaldehyde production” value turned out to be 1.4 g/L h at alcohol oxidase (enzyme concentration 1.0 U/mL (0.06 g/L)); 3.4 g/L h on alcohol oxidase (enzyme concentration 2.5 U/mL (0.16 g/L)); 6.3 g/L h on alcohol oxidase (enzyme concentration 5.0 U/mL (0.31 g/L)); 8.6 g/L h on alcohol oxidase (enzyme concentration 7.5 U/mL (0.47 g/L)); 10.3 g/L h on alcohol oxidase (enzyme concentration 10 U/mL (0.63 g/L)); 11.7 g/L h at alcohol oxidase (enzyme concentration 15 U/mL (0.94 g/L)). For the same compound, the “Relative Reaction Rate” value at alcohol oxidase (reaction fluid Chloroform) worked out at 0.03; at alcohol oxidase (reaction fluid Ether), 0.19; on alcohol oxidase (reaction fluid Ethylacetate), 0.04; on alcohol oxidase (reaction fluid Hexane) it was 1.0; on alcohol oxidase (reaction fluid Toluene), 0.49. Moreover, the “Reaction Rate” value is given as 0.07 g/L h at alcohol oxidase (reaction fluid Chloroform); 0.39 g/L h at alcohol oxidase (reaction fluid Ether); 0.09 g/L h on alcohol oxidase (reaction fluid Ethylacetate); 2.08 g/L h on alcohol oxidase (reaction fluid Hexane); 1.01 g/L h at alcohol oxidase (reaction fluid Toluene). For the same compound, the “Substrate concentration up to which optimum reaction rates (85% of Vmax) could be maintained” value on alcohol oxidase (two phase system, hexane) is “up to 54 g/L”. The inhibition at 20000 µg/mL in data set [1] (Komagataella pastoris, read-out: Reduction of reaction rate by substrate inhibition) was about 60%. Moreover, in data set [1] (whole cells in aqueous reaction fluid), the “Substrate concentration at which strong inhibition of the reaction is observed” value is “greater than 20 g/L”.

Regarding `CCCCCCCCCCO` [decanol], the “Oxidation … from P. pastoris” value in data set [1] is listed as “unable to oxidize”.

With `CCCCCCO` [hexanol], the “Aldehyde concentration, aqueous” value in data set [1] (alcohol 30 g/L, reaction time 12 h) was determined as 5.0 g/L. Moreover, the Hexanal produced with P. pastoris (Chloroform) is reported as 1.0 g/L; with P. pastoris (Ether), 2.7 g/L; in the data set with P. pastoris (Ethyl acetate), 2.4 g/L; in the data set on P. pastoris (Hexane), 8.7 g/L; with P. pastoris (Toluene), 2.4 g/L. Also, the “Hexanol concentration completely oxidized” value in the data set on P. pastoris (water-hexane two-phase system) is reported as “up to 10 g/L”. In addition, the “Aldehyde concentration, 2-phase” value in data set [4] (reaction time 6 h) was 10.6 g/L; in data set [4] (reaction time 24 h), 12.4 g/L.

With `CCCCCCCCCCCO` [undecanol], the “Oxidation … from P. pastoris” value in data set [1] is given as “unable to oxidize”.

Turning to `CC(C)(C)O` [tert butanol], the “Oxidation by purified alcohol oxidase” value in data set [3] is recorded as “unable to oxidize”.

For `CCCCCCCCO` [octanol], in data set [1], the “Oxidation … from P. pastoris” value was “unable to oxidize”.

Take `CCCCCC=O` [hexanal]: the Partition coefficient entry in data set [5] is listed as “greater than unity”.

Turning to `OC1CCCCC1` [cyclohexanol], the “Oxidation by purified alcohol oxidase” value in data set [3] is on record as “unable to oxidize”.

Source of the values: patent publication US5010005A, “Bio-oxidation of high alcohols in non-aqueous reaction media” (priority 1989, dated 1991).
